Patent US20100204258A1, “METHODS AND COMPOSITIONS FOR MODULATING INSULIN SECRETION AND GLUCOSE METABOLISM” (The Trustees of Columbia University in the City of New York, priority 2007, published 2010)
Entries after “also recorded” stand apart in the source; their conditions may differ.

Assays:
human islets = experiment: Glucose-stimulated insulin secretion of purified human cadaveric islets ex vivo; type: cell-based; details: stimulation by high concentrations of glucose
Procedure: Human islet tissue and glucose-stimulated insulin secretion. The islet tissue used in these studies was obtained with institutional review board approval. Pancreas digestion and islet isolation were performed using minor modifications of the Edmonton purification protocol. (Shapiro, […] al. “Islet […] in seven patients with type I diabetes mellitus using a glucocortoid-free immunosuppressive regimen.” New England Journal of Medicine 343(4):230-8, (2000)) The determination of islet cell mass, viability, and purity were also performed. Purified islets were cultured in CMRL 1066 culture media with 10% fetal bovine serum at 37° C. in humidified air (5% CO2) for 18 to 24 hours. The human islet insulin secretory response was performed according to a procedure described by the Edmonton group. (Id.) Briefly, after an overnight culture, islets were incubated with either low or high concentrations of glucose for 2 hours at 37° C. and 5% CO2. The supernatant was collected for insulin measurement. Insulin concentrations in these experiments were analyzed with a human insulin enzyme-linked immunosorbent assay (ELISA) kit (ALPCO Insulin ELISA kit, Windham, N.H.). In some experiments TBZ, DTBZ or epinephrine was added to the cultures before glucose stimulation.

Lewis rats [1] = experiment: IPGTT after 2 mg/kg i.v. of VMAT2 ligands (FIG. 10); type: in vivo, rat; details: 2 mg/kg body weight i.v.; for blood glucose levels during IPGTT: around sixty minutes following glucose challenge; for area under the curve in the IPGTT: following glucose challenge; for blood glucose excursion during IPGTT: vs vehicle (DMSO)
Procedure: Experimental animals. All animal studies were conducted as described in Example 1.
Anaesthetized rats were administered TBZ, THB, butamol, reserpine, emetine, or Compound 6 at a dose of approximately 2-3 mg/kg body weight by intravenous (i.v.) injection using the penile vein. TBZ, THB, butamol, reserpine, emetine, and Compound 6 were each separately dissolved in neat sterile dimethylsulfoxide (DMSO) and diluted (always more than 10 fold) in sterile saline. Rats received injections of vehicle alone (10% DMSO in saline) or reserpine (in saline). Animals recovered fully before receiving IPGTT.
(§1) Blood glucose, insulin, glucagon and intraperitoneal glucose tolerance tests measurements. Blood samples were collected from a superficial blood vessel in the tails of the rats following 6 hours of fasting between 12:00 noon and 2:00 p.m. The fasting blood glucose (BG) levels of the rats were measured using an Accu-Check blood glucose monitoring system (Roche Diagnostics, Sommerville, N.J.). Intraperitoneal glucose tolerance tests (IPGTT) were performed in 6 hour fasting un-anaesthetized animals. Briefly, after baseline BG measurements, animals received an intraperitoneal (i.p.) injection of 1 gram glucose/kilogram body weight. To minimize stress during the procedure, rats were handled by the same operator during acclimatization and later during weighing and IPGTT. Blood samples (approximately 30 μl) were collected at baseline and then again 15, 30, 45, 60, 90, and 120 minutes following i.p. glucose. BG concentrations were measured immediately on these samples and the remainder processed.

Lewis rats [2] = experiment: IPGTT with TBZ, emetine and Compound 6 (FIG. 12); type: in vivo, rat; details: single dose 2-3 mg/kg body weight; for area under the curve from IPGTT: separate experiments
Procedure: as §1, with “Experimental animals. All animal studies were conducted as described in Example 1. […] Rats received injections of vehicle alone (10% DMSO in saline) or reserpine (in saline). Animals recovered fully before receiving IPGTT. Blood glucose,” for “Blood glucose,”, “tests measurements. […] The fasting” for “tests measurements. Blood samples were collected from a superficial blood vessel in the tails of the rats following 6 hours of fasting between 12:00 noon and 2:00 p.m. The fasting”

Lewis rats [3] = experiment: Intraperitoneal glucose tolerance test (IPGTT) in normal Lewis rats after a single i.v. dose; type: in vivo, rat; details: 25 μg/gbm, single concentration; data not shown
Procedure: Experimental animals. All animal studies were reviewed and approved by the Institutional Animal Care and Use Committee (IACUC) at Columbia University's Medical School. All experiments were performed in accordance with the IACUC approved procedures. Normal male Lewis rats (100-400 grams) were obtained from Taconic (Taconic Inc., Germantown, N.Y.) and were housed under conditions of controlled humidity (55±5%), temperature (23±1° C.), and lighting (light on: 06.00-18.00 hours) with free access to standard laboratory rat chow and water. Rats were handled daily to minimize nonspecific stress for more than 7 days before the experiments began. In most experiments, it was necessary to measure blood glucose in fasting animals. For these groups, food was removed at the beginning of the light cycle, 6 hours before glucose levels were measured. Diabetes mellitus was induced by intraperitoneal injection of streptozotocin (Sigma Chemical Co., St. Louis, Mo.) (25 to 50 mg/kg) to animals (100 to 150 grams) that had been fasted 4 hours to enhance the effectiveness of STZ treatment.
The STZ solution was prepared fresh by dissolving it in 0.1 M citrate buffer (pH 5.5) and terminally sterile filtered. Control Lewis age and weight matched rats received a 0.5 ml/kg citrate vehicle alone via intraperitoneal injection. Sixty minutes prior to intraperitoneal glucose tolerance testing (IPGTT), anesthesia of male Lewis rats was induced with isoflurane (3-4% in oxygen) and maintained with 1-2% isoflurane in oxygen. Anaesthetized rats were administered TBZ at the indicated dose by intravenous (i.v.) injection using the penile vein. TBZ was dissolved in neat sterile dimethylsulfoxide (DMSO) and diluted (always more than 10 fold) in sterile saline. Rats received injections of vehicle alone (10% DMSO in saline) or reserpine (in saline). Animals recovered fully before receiving IPGTT.
as §1, with “30,” for “30, 45,”, “glucose administration.” for “glucose.”
Plasma was immediately separated by centrifugation at 3000×g for 15 minutes and then stored at −20° C. until analysis. Insulin and glucagon concentration measurements in rat plasma were performed by ELISA as per the manufacturer's instructions using kits from Linco Research Inc. (St. Charles, Mo.) and Alpco Diagnostics (Salem, N.H.), respectively. To validate the test, saline injections were performed by the same method. […] The area under the IPGTT glucose concentration×time curve (AUCIPGTT) was calculated by the trapezoidal rule. The area under the insulin or glucagon concentration×time curve (AUC INS or AUC GCG) was calculated in a similar manner.

| SMILES | blood glucose levels during IPGTT (Lewis rats [1]) | area under the curve in the IPGTT (Lewis rats [1]) | blood glucose excursion during IPGTT (Lewis rats [1]) | also measured |
| --- | --- | --- | --- | --- |
| COc1cc2c(cc1OC)[C@H]1C[C@@H](O)[C@H](CC(C)C)CN1CC2 [DTBZ, dihydrotetrabenazine] | – | – | – | insulin secreted by human islets in culture (human islets): enhances glucose-stimulated insulin secretion; also recorded: significantly enhanced |
| CC[C@H]1CN2CCc3cc(OC)c(OC)cc3[C@@H]2C[C@@H]1C[C@H]1NCCc2cc(OC)c(OC)cc21 [emetine] | returned to control or near normal levels | smaller area under the curve | reduced the blood glucose excursion | blood glucose excursion during IPGTT (Lewis rats [2]): consistently reduced the blood glucose excursion; area under the curve from IPGTT (Lewis rats [2]): consistently suppressed the area under the curve; area under the curve from IPGTT (Lewis rats [2]; listed as emitine): depress the area under the curve |
| COc1ccc2c(c1OC)CN1CCc3cc4c(cc3C1C2)OCO4 (stereo not drawn) [THB, tetrahydroberberine] | returned to control or near normal levels | smaller area under the curve | reduced the blood glucose excursion | – |
| CNC[C@H](O)c1ccc(O)c(O)c1 [epinephrine, L-epinephrine bitartrate] | – | – | – | insulin secreted by human islets in culture (human islets): inhibited secretion of insulin |
| CC(C)(C)NCC(O)c1ccc(O)c(CO)c1 (stereo not drawn) [butamol] | returned to control or near normal levels | smaller area under the curve | does not reduce the blood glucose excursion; also recorded: did not reduce the blood glucose excursion | – |
| COc1cc2c(cc1OC)C1CC(N)C(CC(C)C)CN1CC2 (stereo not drawn) [Compound 6, 3-isobutyl-9,10-dimethoxy-2,3,4,6,7,11b-hexahydro-1H-pyrido[2,1-a]isoquinolin-2-amine] | – | – | – | blood glucose excursion during IPGTT (Lewis rats [2]): consistently reduced the blood glucose excursion; area under the curve from IPGTT (Lewis rats [2]): depress the area under the curve; also recorded: consistently suppressed the area under the curve |
| COC(=O)[C@H]1[C@H]2C[C@@H]3c4[nH]c5cc(OC)ccc5c4CCN3C[C@H]2C[C@@H](OC(=O)c2cc(OC)c(OC)c(OC)c2)[C@@H]1OC [reserpine] | returned to control or near normal levels | smaller area under the curve | reduced the blood glucose excursion | AUC IPGTT relative to untreated controls (Lewis rats [3]): larger AUC IPGTT; blood glucose in IPGTT (Lewis rats [3]): persistent hyperglycemia |
